Experimental data taken from patent US20190133968A1, “Applications of benzophenones in preparation of drug” (SHANXI MEDICAL UNIVERSITY, priority 2016, published 2019).

System: chronic nephritis rats
Experiment: chronic nephritis rat model (passive Heymann nephritis)
Type: in vivo, SD rats
Settings: gavage; for IL-1α / IL-1β / IL-6 / IL-10 / Scr: serum
Method: The solid dispersions are prepared through a solvent method, comprising steps of: respectively precisely weighing LM49, PVPK30 and tween80 with a weight ratio of 1:5:1, and A8, PVPK30 and tween80 with a weight ratio of 1:4:1; dissolving with appropriate absolute ethyl alcohol, continuously stirring, and uniformly mixing; placing on the water bath at 60° C., evaporating and removing the absolute ethyl alcohol, and obtaining a viscous material; placing in the freezer at −20° C., and freezing for 2 hours; taking out from the freezer, then placing in the vacuum drying oven, and drying for 24 hours; after becoming embrittlement, smashing and sieving with a sieve of 80 meshes, and then placing in the dryer for storage.
The passive Heymann nephritis is the classic model for researching the human chronic nephrosis. Thus, the present invention researches the effects of the two disclosed compounds on preventing the chronic nephritis with the model.
Ninety male SD rats having a weight of 180-220 g are selected, wherein: ten rats are selected as a blank group, and the remaining rats are used for preparing the rat Heymann nephritis models according to the method (disclosed in Journal of Proteomics, 2012, 75(3): pages 3866-3876). The successively established model rats are randomly divided into the model group, the positive control group (dexamethasone with a concentration of 0.1 mg/kg), the LM49 solid dispersion low-dose group (with the drug concentration of 3 mg/kg), the LM49 solid dispersion medium-dose group (with the drug concentration of 9 mg/kg), the LM49 solid dispersion high-dose group (with the drug concentration of 27 mg/kg), the A8 solid dispersion low-dose group (with the drug concentration of 3 mg/kg), the A8 solid dispersion medium-dose group (with the drug concentration of 9 mg/kg), and the A8 solid dispersion high-dose group (with the drug concentration of 27 mg/kg).
The rats of the blank group and the model group are administrated with the normal saline of same volume, and the rats of the other groups are respectively administrated with the drugs of the corresponding dose, by gavage, every day from model establishment for four weeks.
The blood of the rats of all groups is drawn at the second week and the fourth week from model establishment and 24-hour urine thereof is collected, for respectively measuring the contents of the urinary albumin, serum creatinine (Scr) in the serum, BUN, IL-1α, IL-1β, IL-6 and IL-10.
The data is represented in mean±(standard deviation) (x±s) and processed with the SPSS 19.0 statistical software. The one-way analysis of variance (ANOVA) is adopted for comparison among the groups, and then the LSD-Test is adopted for pairwise comparison. The differences of P<0.05 and P<0.01 are statistically significant.

[1] = high-dose 27 mg/kg, Fourth week
[2] = high-dose 27 mg/kg, Second week
[3] = medium-dose 9 mg/kg, Fourth week
[4] = medium-dose 9 mg/kg, Second week

Structure (SMILES)	24-hour urinary protein quantitation [1]	24-hour urinary protein quantitation [2]	IL-1α [1]	IL-1β [1]	IL-6 [1]	IL-10 [1] [pg/mL]	Scr [1] [µmol/L]	IL-1α [2] [pg/mL]	IL-1β [2]	IL-6 [2]	IL-10 [2] [pg/mL]	Scr [2] [µmol/L]	24-hour urinary protein quantitation (low-dose 3 mg/kg, Fourth week) [mg/24 h]	24-hour urinary protein quantitation (low-dose 3 mg/kg, Second week) [mg/24 h]	IL-1α (low-dose 3 mg/kg, Fourth week) [pg/mL]	IL-1β (low-dose 3 mg/kg, Fourth week)	IL-6 (low-dose 3 mg/kg, Fourth week)	IL-10 (low-dose 3 mg/kg, Fourth week) [pg/mL]	Scr (low-dose 3 mg/kg, Fourth week) [µmol/L]	IL-1α (low-dose 3 mg/kg, Second week) [pg/mL]	also measured
O=C(c1cc(OC(=O)N2CCOCC2)c(OC(=O)N2CCOCC2)cc1Cl)c1cc(Cl)ccc1OC(=O)N1CCOCC1 [A8, 4,5,2′-tris(4-morpholinemethanoyl)-2,5′-dichlorobenzophenone]	8.26 ± 1.9^ΔΔ## mg/24 h	14.77 ± 3.6^ΔΔ mg/24 h	7.33 ± 2.14^ΔΔ pg/ml	99.44 ± 39.74^ΔΔ# pg/ml	56.95 ± 20.44^ΔΔ pg/ml	40.21 ± 13.01	44.55 ± 10.7	10.69 ± 3.76	198.20 ± 90.01^Δ pg/ml	78.66 ± 35.92^ΔΔ pg/ml	60.25 ± 22.34	41.04 ± 10.1	30.22 ± 6.8	32.98 ± 7.7	12.65 ± 3.14	261.33 ± 76.55^ pg/ml	89.33 ± 29.89^Δ pg/ml	70.66 ± 32.28	47.36 ± 13.1	14.01 ± 3.99	IL-1β (low-dose 3 mg/kg, Second week): 310.21 ± 70.01 pg/mL; IL-6 (low-dose 3 mg/kg, Second week): 111.79 ± 36.28 pg/mL; IL-10 (low-dose 3 mg/kg, Second week): 89.33 ± 36.77 pg/mL; Scr (low-dose 3 mg/kg, Second week): 44.33 ± 11.1 µmol/L; 24-hour urinary protein quantitation [3]: 15.01 ± 4.4^ΔΔ mg/24 h; 24-hour urinary protein quantitation [4]: 20.02 ± 5.2^Δ mg/24 h; IL-1α [3]: 10.10 ± 4.01 pg/mL; IL-1β [3]: 192.56 ± 64.69^Δ pg/ml; IL-6 [3]: 73.57 ± 25.60^ΔΔ pg/ml; IL-10 [3]: 61.48 ± 24.53 pg/mL; Scr [3]: 45.99 ± 14.4 µmol/L; IL-1α [4]: 12.63 ± 4.56 pg/mL; IL-1β [4]: 277.65 ± 60.39 pg/mL; IL-6 [4]: 90.31 ± 30.41^Δ pg/ml; IL-10 [4]: 74.55 ± 32.12 pg/mL; Scr [4]: 45.66 ± 12.2 µmol/L
O=C(c1cc(Br)ccc1O)c1cc(O)c(O)cc1Br [LM49, 2,5′-dibromo-4,5,2′-trihydroxyldiphenylmethanone]	9.55 ± 2.8^ΔΔ## mg/24 h	18.11 ± 3.2^Δ mg/24 h	8.42 ± 2.76^ΔΔ pg/ml	200.44 ± 59.31^Δ pg/ml	77.03 ± 36.53^ΔΔ pg/ml	31.42 ± 10.09	46.97 ± 11.6	11.44 ± 3.95	227.21 ± 95.41^Δ pg/ml	91.11 ± 40.63^ΔΔ pg/ml	55.75 ± 17.61	41.42 ± 10.6	22.18 ± 6.3	34.43 ± 6.6	13.98 ± 3.77	380.39 ± 80.66^ pg/ml	130.12 ± 45.19 pg/mL	60.01 ± 26.61	47.78 ± 11.2	14.53 ± 4.76	IL-1β (low-dose 3 mg/kg, Second week): 388.25 ± 72.31 pg/mL; IL-6 (low-dose 3 mg/kg, Second week): 131.23 ± 41.33 pg/mL; IL-10 (low-dose 3 mg/kg, Second week): 80.09 ± 33.11 pg/mL; Scr (low-dose 3 mg/kg, Second week): 49.44 ± 11.1 µmol/L; 24-hour urinary protein quantitation [3]: 17.65 ± 5.7^ΔΔ mg/24 h; 24-hour urinary protein quantitation [4]: 24.99 ± 5.0 mg/24 h; IL-1α [3]: 12.15 ± 4.76 pg/mL; IL-1β [3]: 297.55 ± 94.66^Δ pg/ml; IL-6 [3]: 90.66 ± 40.03^Δ pg/ml; IL-10 [3]: 51.51 ± 18.09 pg/mL; Scr [3]: 46.57 ± 10.9 µmol/L; IL-1α [4]: 13.62 ± 4.87 pg/mL; IL-1β [4]: 351.11 ± 100.32 pg/mL; IL-6 [4]: 100.15 ± 32.51 pg/mL; IL-10 [4]: 61.31 ± 23.89 pg/mL; Scr [4]: 45.88 ± 12.2 µmol/L
